Results taken from patent publication US20250235545A1, “POLYPEPTIDE CONJUGATE AND USE THEREOF” (SHANGHAI CHIXI BIOMEDICAL TECHNOLOGY CO., LTD, priority 2024, published 2025).
Converted amounts (≈) assume the structure as drawn. Like-named read-outs stand apart in the source and are kept apart here. Where a SMILES comes first, the peptide text is derived from it. The star is where a group is joined. X2 = CCCCN(CCc1c2c(nc3ccccc13)-c1cc3c(c(=O)n1C2)COC(=O)[C@]3(O)CC)*; X4 = CCCN(CCc1c2c(nc3ccccc13)-c1cc3c(c(=O)n1C2)COC(=O)[C@]3(O)CC)*; X5 = CC[C@@]1(O)C(=O)OCc2c1cc1n(c2=O)Cc2c-1nc1ccccc1c2CCN(CC(C)C)*; Propanoyl(3-maleimido) = O=C1C=CC(=O)N1CCC(=O)*; PEG6 = NCCOCCOCCOCCOCCOCCOCCC(=O)O

Assays:
[1] = Tumor homogenate activation efficiency, sarcoma tissue (Examples 28, 37); type: in vitro ADME; details: pH 5.0, 37° C., 2 h
Method in brief: (§1)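 Activation is reported as the fraction of free Belotecan peak area among all Belotecan-bearing peaks by HPLC. The conjugate (1 mg/ml) reacts with 100 μg homogenate for 2 h at 37° C in MES buffer, pH 5.0.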

[2] = Tumor homogenate activation efficiency, non-small cell lung cancer tissue (Examples 28, 37); type: in vitro ADME; details: pH 5.0, 37° C., 2 h
Method in brief: as §1

[3] = tested on: A2780 ovarian cancer tumor model; experiment: Efficacy in animal model of A2780 ovarian cancer, 30 mg/kg once a week for two weeks (Example 41); type: in vivo, BALB/c mice
Protocol: Test objective: To further compare the antitumor efficacy of different polypeptide Linkers in an animal tumor model of A2780 ovarian cancer.
Test drug: Polypeptide conjugate and normal saline control group.
8×10^6 corresponding cells were injected into right axillas of nude mice subcutaneously. […] The negative control group was administered normal saline. Administration was performed once a week for two weeks.

[4] = Homogenate activation efficiency, heart tissue (Examples 28, 37); type: in vitro ADME; details: pH 5.0, 37° C., 2 h
[5] = tested on: colo320 colorectal cancer tumor model
Method in brief: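 Dosing was once a week for four weeks, with saline as control, in randomized groups of three mice. Groups were formed after subcutaneous colo320 xenografts (7.5×10^6 cells, right chest) grew to ≥120 mm^3 in female 6–8-week-old BALB/c nude mice.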

[6] = tested on: sarcoma SJSA-1 tumor model
Method in brief: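 Female BALB/c nude mice (6-8 weeks) bearing subcutaneous right-chest SJSA-1 xenografts from 2×10^7 cells were randomized, three per group, once tumors reached at least 100 mm^3. Treatment given once a week for three weeks starting day 1; saline controls.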

[7] = Tumor homogenate activation efficiency, ovarian cancer tissue (Examples 28, 37); type: in vitro ADME; details: pH 5.0, 37° C., 2 h
Method in brief: as §1

[8] = Tumor homogenate activation efficiency, colorectal cancer tissue (Example 37); type: in vitro ADME; details: pH 5.0, 37° C., 2 h; Table 10
Method in brief: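 Polypeptide conjugate at 1 mg/ml in 50 mM MES, 250 mM NaCl, pH 5.0, incubated with 100 μg colorectal tumor tissue homogenate at 37° C for 2 h. HPLC read-out; release percentage = Belotecan peak area over total area of Belotecan and all Belotecan-containing compounds.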

[9] = tested on: colo320 (colorectal cancer tissue); experiment: cells; type: cell-based; details: CCK8, 48 h; Table 6
Method in brief: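 Colo320 cells, 5,000 per well, exposed to drug concentration series for 48 h at 37 °C, 5% CO2 (0.1% DMSO controls). Viability by CCK8, absorbance at 450 nm after about 2 h. Survival rates and IC50 calculated.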

[10] = 15 mg/kg once a week for four weeks, Table 3
[11] = 45 mg/kg once a week for four weeks, Table 3
[12] = Table 14 (Example 43), dose 45 mg/kg, once a week for four weeks, BALB/c mice
[13] = 15 mg/kg once a week for three weeks, Table 2
[14] = 45 mg/kg once a week for three weeks, Table 2
[15] = 15 mg/kg once a week for four weeks, Table 8
[16] = 45 mg/kg once a week for four weeks, Table 8
[17] = 15 mg/kg once a week for three weeks, Table 7
[18] = 45 mg/kg once a week for three weeks, Table 7

Compound	A2780 (ovarian cancer) mean tumor volume (mm^3) Day 1 [3]	A2780 (ovarian cancer) mean tumor volume (mm^3) Day 4 [3]	A2780 (ovarian cancer) mean tumor volume (mm^3) Day 7 [3]	A2780 (ovarian cancer) mean tumor volume (mm^3) Day 10 [3]	A2780 (ovarian cancer) mean tumor volume (mm^3) Day 14 [3]	Growth rate (%) of A2780 (ovarian cancer) on Day 14 [3]	Mouse weight (%) on Day 14 [3]	Percentage of release efficiency (%) Colorectal cancer tissue (colo320) [8]	Percentage of release efficiency (%) Sarcoma tissue (SJSA1) ([1]; Table 10)	Percentage of release efficiency (%) Non-small cell lung cancer tissue (A549) ([2]; Table 10)	Percentage of release efficiency (%) Heart tissue ([4]; Table 10)	Mouse weight (%) [5, 15]	colo320 (colorectal cancer cell) growth rate (%) [5, 15]	colo320 (colorectal cancer cell) mean tumor volume (mm^3) [5, 15]	Mouse weight (%) [5, 16]	colo320 (colorectal cancer cell) growth rate (%) [5, 16]	colo320 (colorectal cancer cell) mean tumor volume (mm^3) [5, 16]	Mouse weight (%) [6, 17]	SJSA-1 (sarcoma tissue) growth rate (%) [6, 17]	SJSA-1 (sarcoma tissue) mean tumor volume (mm^3) [6, 17]	other results
CC[C@@]1(O)C(=O)OCC2=C1C=C1c3nc4ccccc4c(CCN(C(=O)OCc4ccc(NC(=O)[C@H](CC(N)=O)NC(=O)[C@H](C)NC(=O)[C@H](C)NC(=O)CCOCCOCCOCCOCCOCCOCCNC(=O)CCN5C(=O)C=CC5=O)cc4)C(C)C)c3CN1C2 [MI-6PEG-AAN-PAB-Belotecan]	151.03 mm^3	282.87 mm^3	579.35 mm^3	837.75 mm^3	1135.00 mm^3	751.51%	+1.2%	–	–	–	–	–	–	–	–	–	–	–	–	–	Percentage of release efficiency (%) Sarcoma tissue (SJSA1) ([1]; Table 5): 78.5%; Percentage of release efficiency (%) Non-small cell lung cancer tissue (A549) ([2]; Table 5): 79.9%; Percentage of release efficiency (%) Heart tissue ([4]; Table 5): 2.7%; Mouse weight (%) [5, 10]: +29%; colo320 (colorectal cancer cell) growth rate (%) [5, 10]: 1105.40%; colo320 (colorectal cancer cell) mean tumor volume (mm^3) [5, 10]: 1224.3 mm^3; Mouse weight (%) [5, 11]: +6%; colo320 (colorectal cancer cell) growth rate (%) [5, 11]: 573.97%; colo320 (colorectal cancer cell) mean tumor volume (mm^3) [5, 11]: 635.7 mm^3; Mouse weight (%) [5, 12]: +6%; colo320 (colorectal cancer cell) growth rate (%) [5, 12]: 573.97%; colo320 (colorectal cancer cell) mean tumor volume (mm^3) [5, 12]: 635.7 mm^3; Mouse weight (%) [6, 13]: +6%; SJSA-1 (sarcoma tissue) mean tumor volume (mm^3) [6, 13]: 1357 mm^3; SJSA-1 (sarcoma) Growth rate (%) [6, 13]: 1174.19%; Mouse weight (%) [6, 14]: −5%; SJSA-1 (sarcoma tissue) mean tumor volume (mm^3) [6, 14]: 873.5 mm^3; SJSA-1 (sarcoma) Growth rate (%) [6, 14]: 753.02%; Percentage of release efficiency (%) Ovarian cancer tissue (A2780) ([7]; Table 5): 75.3%
CCCN(CCc1c2c(nc3ccccc13)-c1cc3c(c(=O)n1C2)COC(=O)[C@]3(O)CC)C(=O)[C@H](CC(C)C)NC(=O)[C@H](CC(N)=O)NC(=O)[C@H](C)NC(=O)[C@H](C)NC(=O)CCOCCOCCOCCOCCOCCOCCNC(=O)CCN1C(=O)C=CC1=O [MI-6PEG-AANL-D3] ({Propanoyl(3-maleimido)-PEG6}-AANL-X4)	134.07 mm^3	387.76 mm^3	768.59 mm^3	998.38 mm^3	1508.23 mm^3	1124.96%	+12.2%	71.6%	90%	66.8%	3.9%	+18%	1088.75%	1279.8 mm^3	+18%	641.35%	753.9 mm^3	+21%	1207.54%	1521.5 mm^3	Mouse weight (%) [6, 18]: +16%; SJSA-1 (sarcoma tissue) growth rate (%) [6, 18]: 941.15%; SJSA-1 (sarcoma tissue) mean tumor volume (mm^3) [6, 18]: 1205.8 mm^3; Percentage of release efficiency (%) Ovarian cancer tissue (A2780) ([7]; Table 10): 69.5%; IC50 Colorectal cancer tissue (colo320) [9]: 3.28 µg/mL (≈ 2.54 µM)
CCCCN(CCc1c2c(nc3ccccc13)-c1cc3c(c(=O)n1C2)COC(=O)[C@]3(O)CC)C(=O)[C@H](CC(C)C)NC(=O)[C@H](CC(N)=O)NC(=O)[C@H](C)NC(=O)[C@H](C)NC(=O)CCOCCOCCOCCOCCOCCOCCNC(=O)CCN1C(=O)C=CC1=O [MI-6PEG-AANL-D4] ({Propanoyl(3-maleimido)-PEG6}-AANL-X2)	133.89 mm^3	309.51 mm^3	703.24 mm^3	894.45 mm^3	1345.03 mm^3	1004.58%	+14.5%	76.5%	81.2%	77.7%	4%	+17%	1081.25%	1271.1 mm^3	+18%	832.33%	978.4 mm^3	+19%	1031.84%	1289.8 mm^3	Mouse weight (%) [5, 12]: +18%; colo320 (colorectal cancer cell) growth rate (%) [5, 12]: 832.33%; colo320 (colorectal cancer cell) mean tumor volume (mm^3) [5, 12]: 978.4 mm^3; Mouse weight (%) [6, 18]: +19%; SJSA-1 (sarcoma tissue) growth rate (%) [6, 18]: 924.41%; SJSA-1 (sarcoma tissue) mean tumor volume (mm^3) [6, 18]: 1149.5 mm^3; Percentage of release efficiency (%) Ovarian cancer tissue (A2780) ([7]; Table 10): 66.7%; IC50 Colorectal cancer tissue (colo320) [9]: 5.40 µg/mL (≈ 4.14 µM)
CC[C@@]1(O)C(=O)OCc2c1cc1n(c2=O)Cc2c-1nc1ccccc1c2CCN(CC(C)C)C(=O)[C@H](CC(C)C)NC(=O)[C@H](CC(N)=O)NC(=O)[C@H](C)NC(=O)[C@H](C)NC(=O)CCOCCOCCOCCOCCOCCOCCNC(=O)CCN1C(=O)C=CC1=O [MI-6PEG-AANL-D5] ({Propanoyl(3-maleimido)-PEG6}-AANL-X5)	134.01 mm^3	254.52 mm^3	612.55 mm^3	730.28 mm^3	1116.71 mm^3	833.30%	+7.9%	69.8%	77.5%	85.5%	5.5%	+19%	1027.54%	1257.2 mm^3	+19%	643.05%	755.9 mm^3	+18%	1069.02%	1304.2 mm^3	Mouse weight (%) [6, 18]: +17%; SJSA-1 (sarcoma tissue) growth rate (%) [6, 18]: 933.13%; SJSA-1 (sarcoma tissue) mean tumor volume (mm^3) [6, 18]: 1165.2 mm^3; Percentage of release efficiency (%) Ovarian cancer tissue (A2780) ([7]; Table 10): 74.3%; IC50 Colorectal cancer tissue (colo320) [9]: 2.42 µg/mL (≈ 1.86 µM)
